For 19 compounds, activity coefficient results are on record in the NIST ThermoML archive (doi:10.1016/j.fluid.2018.09.024).

Numbers after ± are expanded uncertainties.

This series is described as follows: activity coefficient (dimensionless); of the first substance listed, at infinite dilution; xn = mol fraction of the nth substance listed. Conditions: 101.33 kPa, Liquid, Chromatography, x1 = 0.

On to `C=CCCCCCC` [oct-1-ene] + CCCCCCCCCCCC[N+](C)(C)CCOc1ccccc1.N#C[N-]C#N, for which the activity coefficient by setting is: (328.15 K) 4.87 ± 0.33; (338.15 K) 4.98 ± 0.34; (348.15 K) 5.09 ± 0.35; (358.15 K) 5.2 ± 0.35; (368.15 K) 5.29 ± 0.36; (378.15 K) 5.38 ± 0.37.
With `C=CCCCCCC` [oct-1-ene] + CCCCCCCCCCCC[N+](C)(C)CCOc1ccccc1.O=S(=O)([N-]S(=O)(=O)C(F)(F)F)C(F)(F)F, the activity coefficient stood at 2.97 ± 0.2 (318.15 K); 3.06 ± 0.21 (328.15 K); 3.14 ± 0.21 (338.15 K); 3.23 ± 0.22 (348.15 K); 3.32 ± 0.23 (358.15 K); 3.39 ± 0.23 (368.15 K).
For `CCCCCCCC` [octane] + CCCCCCCCCCCC[N+](C)(C)CCOc1ccccc1.N#C[N-]C#N, the activity coefficient was 6.7 ± 0.46 (328.15 K); 6.8 ± 0.46 (338.15 K); 6.87 ± 0.47 (348.15 K); 6.96 ± 0.47 (358.15 K); 7.07 ± 0.48 (368.15 K); 7.15 ± 0.49 (378.15 K).
On to `CCCCCCCC` [octane] + CCCCCCCCCCCC[N+](C)(C)CCOc1ccccc1.O=S(=O)([N-]S(=O)(=O)C(F)(F)F)C(F)(F)F, for which the activity coefficient (318.15 K) amounted to 4.05 ± 0.28; the activity coefficient (328.15 K) is 4.14 ± 0.28; the activity coefficient (338.15 K) was 4.23 ± 0.29; the activity coefficient (348.15 K) turned out to be 4.32 ± 0.29; the activity coefficient (358.15 K) was determined as 4.41 ± 0.3; the activity coefficient (368.15 K) was 4.5 ± 0.31.
As to `CCCCCO` [pentan-1-ol] + CCCCCCCCCCCC[N+](C)(C)CCOc1ccccc1.N#C[N-]C#N, the activity coefficient is, setting by setting: (328.15 K) 0.477 ± 0.037; (338.15 K) 0.491 ± 0.037; (348.15 K) 0.505 ± 0.038; (358.15 K) 0.517 ± 0.039; (368.15 K) 0.53 ± 0.039; (378.15 K) 0.542 ± 0.04.
For `CCCCCO` [pentan-1-ol] + CCCCCCCCCCCC[N+](C)(C)CCOc1ccccc1.O=S(=O)([N-]S(=O)(=O)C(F)(F)F)C(F)(F)F, the activity coefficient is, setting by setting: (318.15 K) 1.34 ± 0.09; (328.15 K) 1.31 ± 0.09; (338.15 K) 1.27 ± 0.08; (348.15 K) 1.24 ± 0.08; (358.15 K) 1.22 ± 0.08; (368.15 K) 1.19 ± 0.08.
In the case of `CCCC(C)=O` [pentan-2-one] + CCCCCCCCCCCC[N+](C)(C)CCOc1ccccc1.N#C[N-]C#N, the activity coefficient worked out at 0.899 ± 0.057 (328.15 K); 0.936 ± 0.059 (338.15 K); 0.97 ± 0.061 (348.15 K); 1 ± 0.06 (358.15 K); 1.04 ± 0.07 (368.15 K); 1.07 ± 0.07 (378.15 K).
For `CCCC(C)=O` [pentan-2-one] + CCCCCCCCCCCC[N+](C)(C)CCOc1ccccc1.O=S(=O)([N-]S(=O)(=O)C(F)(F)F)C(F)(F)F, the activity coefficient (318.15 K) is 0.386 ± 0.033; the activity coefficient (328.15 K) is 0.41 ± 0.034; the activity coefficient (338.15 K) was found to be 0.434 ± 0.035; the activity coefficient (348.15 K) amounted to 0.458 ± 0.036; the activity coefficient (358.15 K) came to 0.481 ± 0.037; the activity coefficient (368.15 K) was found to be 0.503 ± 0.038.
On to `CCC(=O)CC` [pentan-3-one] + CCCCCCCCCCCC[N+](C)(C)CCOc1ccccc1.N#C[N-]C#N, for which the activity coefficient worked out at 0.909 ± 0.058 (328.15 K); 0.947 ± 0.06 (338.15 K); 0.981 ± 0.062 (348.15 K); 1.02 ± 0.06 (358.15 K); 1.05 ± 0.07 (368.15 K); 1.08 ± 0.07 (378.15 K).
Take `CCC(=O)CC` [pentan-3-one] + CCCCCCCCCCCC[N+](C)(C)CCOc1ccccc1.O=S(=O)([N-]S(=O)(=O)C(F)(F)F)C(F)(F)F: the activity coefficient runs as follows: (318.15 K) 0.387 ± 0.034; (328.15 K) 0.412 ± 0.034; (338.15 K) 0.437 ± 0.035; (348.15 K) 0.462 ± 0.036; (358.15 K) 0.486 ± 0.037; (368.15 K) 0.511 ± 0.038.
For the compound `CCCO` [propan-1-ol] + CCCCCCCCCCCC[N+](C)(C)CCOc1ccccc1.N#C[N-]C#N, the activity coefficient (328.15 K) amounted to 0.425 ± 0.035; the activity coefficient (338.15 K) turned out to be 0.435 ± 0.035; the activity coefficient (348.15 K) was 0.445 ± 0.036; the activity coefficient (358.15 K) turned out to be 0.454 ± 0.036; the activity coefficient (368.15 K) turned out to be 0.463 ± 0.036; the activity coefficient (378.15 K) was 0.471 ± 0.037.
Turning to `CCCO` [propan-1-ol] + CCCCCCCCCCCC[N+](C)(C)CCOc1ccccc1.O=S(=O)([N-]S(=O)(=O)C(F)(F)F)C(F)(F)F, the activity coefficient was determined as 1.28 ± 0.08 (318.15 K); 1.24 ± 0.08 (328.15 K); 1.2 ± 0.08 (338.15 K); 1.17 ± 0.07 (348.15 K); 1.14 ± 0.07 (358.15 K); 1.11 ± 0.07 (368.15 K).
In the case of `CC(C)O` [propan-2-ol] + CCCCCCCCCCCC[N+](C)(C)CCOc1ccccc1.N#C[N-]C#N, the activity coefficient is, setting by setting: (328.15 K) 0.494 ± 0.038; (338.15 K) 0.504 ± 0.038; (348.15 K) 0.512 ± 0.038; (358.15 K) 0.52 ± 0.039; (368.15 K) 0.528 ± 0.039; (378.15 K) 0.535 ± 0.039.
Regarding `CC(C)O` [propan-2-ol] + CCCCCCCCCCCC[N+](C)(C)CCOc1ccccc1.O=S(=O)([N-]S(=O)(=O)C(F)(F)F)C(F)(F)F, the activity coefficient was found to be 1.27 ± 0.08 (318.15 K); 1.22 ± 0.08 (328.15 K); 1.18 ± 0.08 (338.15 K); 1.14 ± 0.07 (348.15 K); 1.11 ± 0.07 (358.15 K); 1.08 ± 0.07 (368.15 K).
Regarding `CCCc1ccccc1` [propylbenzene] + CCCCCCCCCCCC[N+](C)(C)CCOc1ccccc1.N#C[N-]C#N, the activity coefficient is, setting by setting: (328.15 K) 1.71 ± 0.11; (338.15 K) 1.77 ± 0.12; (348.15 K) 1.83 ± 0.12; (358.15 K) 1.89 ± 0.13; (368.15 K) 1.96 ± 0.13; (378.15 K) 2.01 ± 0.14.
With `CCCc1ccccc1` [propylbenzene] + CCCCCCCCCCCC[N+](C)(C)CCOc1ccccc1.O=S(=O)([N-]S(=O)(=O)C(F)(F)F)C(F)(F)F, the activity coefficient is, setting by setting: (318.15 K) 1.09 ± 0.07; (328.15 K) 1.15 ± 0.07; (338.15 K) 1.2 ± 0.08; (348.15 K) 1.26 ± 0.08; (358.15 K) 1.32 ± 0.09; (368.15 K) 1.37 ± 0.09.
`c1ccncc1` [pyridine] + CCCCCCCCCCCC[N+](C)(C)CCOc1ccccc1.N#C[N-]C#N: the activity coefficient by setting is: (328.15 K) 0.586 ± 0.042; (338.15 K) 0.604 ± 0.042; (348.15 K) 0.622 ± 0.043; (358.15 K) 0.639 ± 0.044; (368.15 K) 0.656 ± 0.045; (378.15 K) 0.673 ± 0.046.
`c1ccncc1` [pyridine] + CCCCCCCCCCCC[N+](C)(C)CCOc1ccccc1.O=S(=O)([N-]S(=O)(=O)C(F)(F)F)C(F)(F)F: the activity coefficient (318.15 K) was 0.278 ± 0.03; the activity coefficient (328.15 K) turned out to be 0.296 ± 0.031; the activity coefficient (338.15 K) was 0.313 ± 0.031; the activity coefficient (348.15 K) turned out to be 0.33 ± 0.032; the activity coefficient (358.15 K) is 0.346 ± 0.032; the activity coefficient (368.15 K) was found to be 0.363 ± 0.033.
With `C=Cc1ccccc1` [styrene] + CCCCCCCCCCCC[N+](C)(C)CCOc1ccccc1.N#C[N-]C#N, the activity coefficient is, setting by setting: (328.15 K) 0.905 ± 0.057; (338.15 K) 0.94 ± 0.06; (348.15 K) 0.981 ± 0.062; (358.15 K) 1.02 ± 0.06; (368.15 K) 1.06 ± 0.07; (378.15 K) 1.1 ± 0.07.
